Assay results: ChEMBL document CHEMBL4229455, “Synthesis and anticancer activity of novel bisindolylhydroxymaleimide derivatives with potent GSK-3 kinase inhibition” (Bioorg Med Chem, 2018)

Assays:
Type in all cases: functional
CCRF-CEM = experiment: Cytotoxicity against human CCRF-CEM cells assessed as cell growth at 0.01 uM after 48 hrs by SRB assay relative to control; settings: read-out: Activity
NCI-H226 = experiment: Cytotoxicity against human NCI-H226 cells assessed as cell growth at 0.01 uM after 48 hrs by SRB assay relative to control; settings: NCI-H226, 48 h, read-out: Activity
NCI-H23 = experiment: Cytotoxicity against human NCI-H23 cells assessed as cell growth at 0.01 uM after 48 hrs by SRB assay relative to control; settings: NCI-H23, 48 h, read-out: Activity
HT-29 [1] = experiment: Cytotoxicity against human HT-29 cells assessed as cell growth at 0.01 uM after 48 hrs by SRB assay relative to control; settings: HT-29, 48 h, read-out: Activity
SF-295 [2] = experiment: Cytotoxicity against human SF295 cells assessed as cell growth at 0.01 uM after 48 hrs by SRB assay relative to control; settings: SF-295, 48 h, read-out: Activity
SNB-75 = experiment: Cytotoxicity against human SNB75 cells assessed as cell growth at 0.01 uM after 48 hrs by SRB assay relative to control; settings: SNB-75, 48 h, read-out: Activity
M14 = experiment: Cytotoxicity against human M14 cells assessed as cell growth at 0.01 uM after 48 hrs by SRB assay relative to control; settings: M14, 48 h, read-out: Activity
SK-MEL-5 = experiment: Cytotoxicity against human SK-MEL-5 cells assessed as cell growth at 0.01 uM after 48 hrs by SRB assay relative to control; settings: SK-MEL-5, 48 h, read-out: Activity
UACC-257 = experiment: Cytotoxicity against human UACC257 cells assessed as cell growth at 0.01 uM after 48 hrs by SRB assay relative to control; settings: UACC-257, 48 h, read-out: Activity
A498 [3] = experiment: Cytotoxicity against human A498 cells assessed as cell growth at 0.01 uM after 48 hrs by SRB assay relative to control; settings: A498, 48 h, read-out: Activity
MDA-MB-468 = experiment: Cytotoxicity against human MDA-MB-468 cells assessed as cell growth at 0.01 uM after 48 hrs by SRB assay relative to control; settings: MDA-MB-468, 48 h, read-out: Activity
SF-268 = experiment: Cytotoxicity against human SF268 cells assessed as cell growth at 0.1 uM after 48 hrs by SRB assay relative to control; settings: SF-268, 48 h, read-out: Activity
SF-295 [4] = experiment: Cytotoxicity against human SF295 cells assessed as cell growth at 0.1 uM after 48 hrs by SRB assay relative to control; settings: SF-295, 48 h, read-out: Activity
LOX IMVI [5] = experiment: Cytotoxicity against human LOXIMVI cells assessed as cell growth at 0.1 uM after 48 hrs by SRB assay relative to control; settings: read-out: Activity
UO-31 = experiment: Cytotoxicity against human UO31 cells assessed as cell growth at 0.1 uM after 48 hrs by SRB assay relative to control; settings: UO-31, 48 h, read-out: Activity
HT-29 [6] = experiment: Cytotoxicity against human HT-29 cells assessed as cell growth at 1 uM after 48 hrs by SRB assay relative to control; settings: HT-29, 48 h, read-out: Activity
SF-295 [7] = experiment: Cytotoxicity against human SF295 cells assessed as cell growth at 1 uM after 48 hrs by SRB assay relative to control; settings: SF-295, 48 h, read-out: Activity
IGROV-1 = experiment: Cytotoxicity against human IGROV1 cells assessed as cell growth at 1 uM after 48 hrs by SRB assay relative to control; settings: IGROV-1, 48 h, read-out: Activity
786-0 [8] = experiment: Cytotoxicity against human 786-O cells assessed as cell growth at 1 uM after 48 hrs by SRB assay relative to control; settings: 786-0, 48 h, read-out: Activity
A498 [9] = experiment: Cytotoxicity against human A498 cells assessed as cell growth at 1 uM after 48 hrs by SRB assay relative to control; settings: A498, 48 h, read-out: Activity
TK-10 = experiment: Cytotoxicity against human TK10 cells assessed as cell growth at 1 uM after 48 hrs by SRB assay relative to control; settings: TK-10, 48 h, read-out: Activity
HCT-116 = experiment: Cytotoxicity against human HCT116 cells assessed as cell growth at 100 uM after 48 hrs by SRB assay relative to control; settings: HCT-116, 48 h, read-out: Activity
SF-539 [10] = experiment: Cytotoxicity against human SF539 cells assessed as cell growth at 100 uM after 48 hrs by SRB assay relative to control; settings: SF-539, 48 h, read-out: Activity
LOX IMVI [11] = experiment: Cytotoxicity against human LOXIMVI cells assessed as cell growth at 100 uM after 48 hrs by SRB assay relative to control; settings: read-out: Activity
Malme-3M = experiment: Cytotoxicity against human MALME-3M cells assessed as cell growth at 100 uM after 48 hrs by SRB assay relative to control; settings: read-out: Activity
SK-MEL-28 [12] = experiment: Cytotoxicity against human SK-MEL-28 cells assessed as cell growth at 100 uM after 48 hrs by SRB assay relative to control; settings: SK-MEL-28, 48 h, read-out: Activity
OVCAR-3 = experiment: Cytotoxicity against human OVCAR3 cells assessed as cell growth at 100 uM after 48 hrs by SRB assay relative to control; settings: OVCAR-3, 48 h, read-out: Activity
NCI/ADR-RES = experiment: Cytotoxicity against human NCI-ADR-RES cells assessed as cell growth at 100 uM after 48 hrs by SRB assay relative to control; settings: read-out: Activity
786-0 [13] = experiment: Cytotoxicity against human 786-O cells assessed as cell growth at 100 uM after 48 hrs by SRB assay relative to control; settings: 786-0, 48 h, read-out: Activity
SN12C = experiment: Cytotoxicity against human SN12C cells assessed as cell growth at 100 uM after 48 hrs by SRB assay relative to control; settings: read-out: Activity
SF-295 [14] = experiment: Cytotoxicity against human SF295 cells after 48 hrs by SRB assay; settings: SF-295, 48 h; for CC50: read-out: LC50 (the source's name)
SF-539 [15] = experiment: Cytotoxicity against human SF539 cells after 48 hrs by SRB assay; settings: SF-539, 48 h
LOX IMVI [16] = experiment: Cytotoxicity against human LOXIMVI cells after 48 hrs by SRB assay
SK-MEL-28 [17] = experiment: Cytotoxicity against human SK-MEL-28 cells after 48 hrs by SRB assay; settings: SK-MEL-28, 48 h
UACC-62 = experiment: Cytotoxicity against human UACC62 cells after 48 hrs by SRB assay; settings: UACC-62, 48 h
OVCAR-8 = experiment: Cytotoxicity against human OVCAR8 cells after 48 hrs by SRB assay; settings: OVCAR-8, 48 h
786-0 [18] = experiment: Cytotoxicity against human 786-O cells after 48 hrs by SRB assay; settings: 786-0, 48 h

N#CCCCCCn1cc(C2=C(c3cn(CCCCCC#N)c4ccccc34)C(=O)N(O)C2=O)c2ccccc21
growth at 0.01 µM (CCRF-CEM): 91%
growth at 0.01 µM (NCI-H226): 95%
growth at 0.01 µM (NCI-H23): 95%
growth at 0.01 µM (HT-29 [1]): 100%
growth at 0.01 µM (SF-295 [2]): 98%
growth at 0.01 µM (SNB-75): 79%
growth at 0.01 µM (M14): 97%
growth at 0.01 µM (SK-MEL-5): 99%
growth at 0.01 µM (UACC-257): 97%
growth at 0.01 µM (A498 [3]): 84%
growth at 0.01 µM (MDA-MB-468): 106%
growth at 0.1 µM (SF-268): 95%
growth at 0.1 µM (SF-295 [4]): 91%
growth at 0.1 µM (LOX IMVI [5]): 90%
growth at 0.1 µM (UO-31): 66%
growth at 1 µM (HT-29 [6]): 106%
growth at 1 µM (SF-295 [7]): 96%
growth at 1 µM (IGROV-1): 104%
growth at 1 µM (786-0 [8]): 100%
growth at 1 µM (A498 [9]): 70%
growth at 1 µM (TK-10): 107%
growth at 100 µM (HCT-116): -15%
growth at 100 µM (SF-539 [10]): -36%
growth at 100 µM (LOX IMVI [11]): -9%
growth at 100 µM (Malme-3M): -14%
growth at 100 µM (SK-MEL-28 [12]): 4%
growth at 100 µM (OVCAR-3): -34%
growth at 100 µM (NCI/ADR-RES): 24%
growth at 100 µM (786-0 [13]): 6%
growth at 100 µM (SN12C): 5%
GI50 (SF-295 [14]): 5.93 µM
TGI (SF-295 [14]): 31.4 µM
CC50 (SF-295 [14]): > 100 µM
GI50 (SF-539 [15]): 2.82 µM
LC50 (SF-539 [15]): > 100 µM
TGI (SF-539 [15]): 9.42 µM
GI50 (LOX IMVI [16]): 2.53 µM
LC50 (LOX IMVI [16]): > 100 µM
TGI (LOX IMVI [16]): 48.1 µM
GI50 (SK-MEL-28 [17]): 6.07 µM
LC50 (SK-MEL-28 [17]): > 100 µM
TGI (SK-MEL-28 [17]): > 100 µM
GI50 (UACC-62): 3.23 µM
LC50 (UACC-62): 84.4 µM
TGI (UACC-62): 16 µM
GI50 (OVCAR-8): 12.3 µM
LC50 (OVCAR-8): > 100 µM
TGI (OVCAR-8): > 100 µM
GI50 (786-0 [18]): 10.3 µM
LC50 (786-0 [18]): > 100 µM
TGI (786-0 [18]): > 100 µM

Cn1cc(C2=C(c3cn(C)c4ncccc34)C(=O)NC2=O)c2ccccc21
growth at 0.01 µM (CCRF-CEM): 98%
growth at 0.01 µM (NCI-H226): 99%
growth at 0.01 µM (NCI-H23): 100%
growth at 0.01 µM (HT-29 [1]): 109%
growth at 0.01 µM (SF-295 [2]): 98%
growth at 0.01 µM (SNB-75): 83%
growth at 0.01 µM (M14): 105%
growth at 0.01 µM (SK-MEL-5): 102%
growth at 0.01 µM (UACC-257): 104%
growth at 0.01 µM (A498 [3]): 76%
growth at 0.01 µM (MDA-MB-468): 101%
growth at 0.1 µM (SF-268): 102%
growth at 0.1 µM (SF-295 [4]): 93%
growth at 0.1 µM (LOX IMVI [5]): 92%
growth at 0.1 µM (UO-31): 89%
growth at 1 µM (HT-29 [6]): 93%
growth at 1 µM (SF-295 [7]): 85%
growth at 1 µM (IGROV-1): 117%
growth at 1 µM (786-0 [8]): 98%
growth at 1 µM (A498 [9]): 27%
growth at 1 µM (TK-10): 87%
growth at 100 µM (HCT-116): -17%
growth at 100 µM (SF-539 [10]): -64%
growth at 100 µM (LOX IMVI [11]): -18%
growth at 100 µM (Malme-3M): -11%
growth at 100 µM (SK-MEL-28 [12]): -24%
growth at 100 µM (OVCAR-3): -19%
growth at 100 µM (NCI/ADR-RES): -19%
growth at 100 µM (786-0 [13]): -19%
growth at 100 µM (SN12C): -14%
GI50 (SF-295 [14]): 2.61 µM
TGI (SF-295 [14]): 10.3 µM
CC50 (SF-295 [14]): > 100 µM
GI50 (SF-539 [15]): 2.09 µM
TGI (SF-539 [15]): 5.85 µM
GI50 (LOX IMVI [16]): 2.61 µM
TGI (LOX IMVI [16]): 30.2 µM
GI50 (SK-MEL-28 [17]): 3.05 µM
TGI (SK-MEL-28 [17]): 17.7 µM
GI50 (UACC-62): 4.22 µM
TGI (UACC-62): 22 µM
GI50 (OVCAR-8): 4.23 µM
TGI (OVCAR-8): 39.9 µM
GI50 (786-0 [18]): 3.59 µM
TGI (786-0 [18]): 23.7 µM
